“And” between values parts separate entries of the source, which are not always exact repeats. Equal values may be shown once. Read-outs that look alike come from different tables or passages of the source.

The record followed here is PMC6804157, “Synthesis, Physicochemical Properties, and Biological Activities of 4-(S-Methyl-N-(2,2,2-Trifluoroacetyl)Sulfilimidoyl) Anthranilic Diamide” (Molecules, 2019).

Data set [1] can be described thus: pH-metric log P (ACD/Labs T3 method). The format is physicochemical. The procedure: (§1) Because we believed that the physicochemical properties of newly-prepared diamides play important roles in their insecticidal activities, the studies were extended to investigate the bioavailability of organosulfur-based crop-protecting agents 14, 15a, 15b, 16a, and 16b in terms of plant systemic properties and membrane permeability. As references, their properties of chlorantraniliprole and cyantraniliprole were also measured.
[39] For LogP, Using ACD/Labs T3 method (pH—metric), for graphs; please see the Supplementary materials.
(§2) Table S3. Physical properties of organosulfur-substituted anthranilic […]
(§3) Entry X Y Log P c,d Permeability e […]
(§4) aMethod for determination of equilibrium solubility: μSOL 25; bat 25 ℃ and pH 7.4; cUsing ACD / Labs T3 method (pH – metric); dfor graphs, please see the supporting information, eMethod for determination of […]

Data set [2] can be described thus: Equilibrium solubility (μSOL). The format is physicochemical. Conditions: 25 °C, pH 7.4, aqueous buffer, thermodynamic from solid. The procedure: as §1
(§5) [37] The physicochemical measurements for determinations of equilibrium solubility, log P, and PAMPA permeability were performed by Drug Discovery Platform Technology Team, KRICT, Korea.
as §2, §3, §4

Data set [3] is classed as in vitro ADME. The following applies: PAMPA. The method, then:
as §1, §5, §2, §3, §4
For orientation: In PAMPA a lipid-coated filter parts donor from acceptor wells.

Data set [4] has as its system third instar larvae of Spodoptera litura. Description: whole plant or invertebrate. The format is in vivo. The following applies: for mortality at 50 ppm: Spodoptera litura. The method, then: For the practical test, newly-prepared compounds 14–16 were evaluated for their insecticidal activities against the third instar larvae of Spodoptera litura according to the reported leaf-dip method.
[35] According to the literature 3a, 3b, and 3d methods, the insecticidal assays were performed by Kyung Nong Co. Ltd., Korea. In detail, please see the Supplementary materials.
Table S1 and S2: Larvicidal activity against Spodoptera (14 and 15a)
The lavicidal activities of synthesized compounds were evaluated by the leaf-dip procedure. 6 The aqueous solution of prepared compounds and chlorantraniliprole in acetone (H 2O : acetone = 95 : 5) were sprayed to a cabbage leave placed on moistened filter paper (disc, diameter 8.8 cm) in petri dishes. After allowing to dry, the dishes were infested with 10 Spodoptera litura (third-instar). After 1, 2, 3, and 4 days, percentage of mortalities was evaluated. The treatments were replicated three times. For negative control, larvicidal activities were 0 % at each time. Ref. is chlorantraniliprole as a positive control.
Table S1. Larvicidal activity depend on time against the 3 rd instar larvae of Spodoptera litura
Entry Compd Concentration Larvicidal activity (%) at 24 h
Entry Compd Concentration Larvicidal activity (%) at 48 h

The logP is the decadic logarithm of the partition coefficient of the neutral form, usually between octanol and water. The low end stands for lower lipophilicity, the high end for higher lipophilicity. As usually defined, the solubility is how much of the substance goes into solution per volume. Compound `CNC(=O)c1cc(SC)cc(C)c1NC(=O)c1cc(Br)nn1-c1ncccc1Cl` [Compound 14, 3-Bromo-1-(3-chloropyridin-2-yl)-N-(2-methyl-6-(methylcarbamoyl)-4-(methylthio)phenyl)-1H-pyrazole-5-carboxamide] came in with a lipophilicity (logP) in data set [1] of 3.45. In addition, in data set [2], the solubility was 5.4 µM and 2.67 µg/mL. The Permeability entry in data set [3] is recorded as “- 4.3 ± 0.047”. Also, the mortality at 50 ppm in data set [4] (24 h, read-out: Larvicidal activity (%) at 24 h, Average, 24 h, average of three replicates) is 0%; in data set [4] (24 h, read-out: Larvicidal activity (%) at 24 h, replicate 1, 24 h), 0%; in data set [4] (24 h, read-out: Larvicidal activity (%) at 24 h, replicate 2, 24 h) it was 0%; in data set [4] (24 h, read-out: Larvicidal activity (%) at 24 h, replicate 3, 24 h) it was 0%; in data set [4] (48 h, read-out: Larvicidal activity (%) at 48 h, Average, 48 h, average of three replicates) it was 13.3%; in data set [4] (48 h, read-out: Larvicidal activity (%) at 48 h, replicate 1, 48 h), 20%. Further, the mortality at 50 ppm stood at 0% in data set [4] (48 h, read-out: Larvicidal activity (%) at 48 h, replicate 2, 48 h); 20% in data set [4] (48 h, read-out: Larvicidal activity (%) at 48 h, replicate 3, 48 h); 70% in data set [4] (72 h, read-out: Larvicidal activity (%) at 72 h, replicate 1, 72 h); 30% in data set [4] (72 h, read-out: Larvicidal activity (%) at 72 h, replicate 2, 72 h); 40% in data set [4] (72 h, read-out: Larvicidal activity (%) at 72 h, replicate 3, 72 h); 80% in data set [4] (96 h, read-out: Larvicidal activity (%) at 96 h, replicate 1, 96 h). The mortality at 50 ppm came to 70% in data set [4] (96 h, read-out: Larvicidal activity (%) at 96 h, replicate 2, 96 h) and 70% in data set [4] (96 h, read-out: Larvicidal activity (%) at 96 h, replicate 3, 96 h). The mortality in data set [4] (read-out: Larvicidal Activity (%) at Time (h) 72 h, third instar larvae of S. litura, 72 h, concentration of 14 and 15a 50 ppm) is 46.7%; in data set [4] (read-out: Larvicidal Activity (%) at Time (h) 96 h, third instar larvae of S. litura, 96 h, concentration of 14 and 15a 50 ppm), 73.3%. Moreover, in data set [4] (third instar larvae of S. litura, 96 h, concentration of 14 and 15a 50 ppm), the “Eating Area (%) 96 h” value was 5–10%.
